# Measured values as given in the Deep4Chem optical property database.
# Assay: photoluminescence quantum yield (fraction); solvent given as SMILES
# [1] = in c1cc(-c2cccc(-n3c4ccccc4c4ccccc43)c2)cc(-n2c3ccccc3c3ccccc32)c1
# [2] = in O=P(c1ccccc1)(c1ccccc1)c1ccccc1Oc1ccccc1P(=O)(c1ccccc1)c1ccccc1
structure (smiles),measurement,setting,value
CN(C)c1ccc(C#Cc2ccc(-c3nc(C#N)c(C#N)n3C)cc2)cc1,photoluminescence quantum yield,in C1CCCCC1,0.84
same,photoluminescence quantum yield,in CC#N,0.005
same,photoluminescence quantum yield,in CO,0.003
same,photoluminescence quantum yield,in ClC(Cl)Cl,0.88
COc1ccc(N(c2ccc(/C=C(\C)c3ccccc3)cc2)c2ccc(OC)cc2)cc1,photoluminescence quantum yield,in Cc1ccccc1,0.41
COc1cc2c(cc1-c1ccccc1)Cc1c3c(c4c(c1-2)-c1cc(OC)c(-c2ccccc2)cc1C4)C(=O)N(CCC(C)C)C3=O,photoluminescence quantum yield,in C1CCOC1,0.53
same,photoluminescence quantum yield,in CC#N,0.46
same,photoluminescence quantum yield,in CC(C)=O,0.38
same,photoluminescence quantum yield,in CCOC(C)=O,0.61
same,photoluminescence quantum yield,in CS(C)=O,0.47
same,photoluminescence quantum yield,in Cc1ccccc1,0.48
same,photoluminescence quantum yield,in ClC(Cl)Cl,0.64
same,photoluminescence quantum yield,in ClCCl,0.63
Cc1c(C)c2c3ccccc3[nH]c2c2ccccc12,photoluminescence quantum yield,in ClCCl,0.156
Cc1cc(C)c(B(c2ccsc2-c2sccc2P(=O)(c2ccccc2)c2ccccc2)c2c(C)cc(C)cc2C)c(C)c1,photoluminescence quantum yield,in CO,0.52
N#Cc1c(N2CCCCC2)cc(-c2cccc3ccccc23)c2c1CCc1ccccc1-2,photoluminescence quantum yield,in C1CCOC1,0.42
N#Cc1ccc2nc3[nH]c(=O)[nH]c(=O)c3nc2c1,photoluminescence quantum yield,in ClCCCl,0.022
CCCCCCCCC1(CCCCCCCC)c2ccccc2-c2ccc(-c3nnc(-c4ccc(-n5c6ccc(C(C)(C)C)cc6c6cc(C(C)(C)C)ccc65)cc4)o3)cc21,photoluminescence quantum yield,in Cc1ccccc1,0.88
CC(C)c1cccc(C(C)C)c1N1C(=O)c2cccc3c(Oc4ccc(C(C)(C)c5ccccc5)cc4)ccc(c23)C1=O,photoluminescence quantum yield,in ClCCl,0.11
COc1ccc2cc(/C=C/c3nc(/C=C/c4ccc(N(C)C)cc4)cc(/C=C/c4ccc(N(C)C)cc4)n3)ccc2c1,photoluminescence quantum yield,in ClCCl,0.52
COc1c2ccccc2c(OC)c2c1c1cc(F)ccc1n2C,photoluminescence quantum yield,in C1CCCCC1,0.39
same,photoluminescence quantum yield,in CC#N,0.34
same,photoluminescence quantum yield,in CO,0.33
same,photoluminescence quantum yield,in ClCCl,0.37
CCCCCCOc1ccc2ccc3oc(=O)cc4cc(OCCCCCC)c1c2c43,photoluminescence quantum yield,in CC1CCCO1,0.83
CC1(C)c2ccccc2N(c2ccc(-c3cc(C#N)c(C#N)cc3-c3ccc(N4c5ccccc5C(C)(C)c5ccccc54)cc3)cc2)c2ccccc21,photoluminescence quantum yield,in Cc1ccccc1,0.59
same,photoluminescence quantum yield,[1],0.86
c1ccc(-c2nc(-c3ccc(N(c4ccccc4)c4ccccc4)cc3)n3ccccc23)cc1,photoluminescence quantum yield,in ClCCl,0.127
COc1ccc(C#Cc2nc3ccccc3nc2-c2csc(OC)c2)cc1,photoluminescence quantum yield,in ClCCl,0.32
NCCCCCCCCCCCCN1C(=O)c2ccc3c4ccc5c6c(ccc(c7ccc(c2c37)C1=O)c64)C(=O)NC5=O,photoluminescence quantum yield,in CN(C)C=O,0.89
CCN(CC)c1c2ccc(=[N+]3CCCCC3)cc-2oc2cc(N3CCCCC3)ccc12,photoluminescence quantum yield,in ClCCl,0.11
N#Cc1cc2nc3c(nc2cc1C#N)C1c2ccc(N(c4ccccc4)c4ccccc4)cc2C3c2ccc(N(c3ccccc3)c3ccccc3)cc21,photoluminescence quantum yield,in C1CCCCC1,0.44
same,photoluminescence quantum yield,in CC#N,0.01
same,photoluminescence quantum yield,in Cc1ccccc1,0.35
same,photoluminescence quantum yield,in ClCCl,0.02
N#Cc1ccc(N2c3ccccc3C(c3ccccc3)(c3ccccc3)c3ccccc32)cc1,photoluminescence quantum yield,in Cc1ccccc1,0.22
Cc1c(C(=O)c2ccc3c4cccc5cccc(c6cccc2c63)c54)c2ccc3cccc4c5cccc6ccc1c(c65)c2c34,photoluminescence quantum yield,in ClCCl,0.069
Cc1cccc(C)c1,photoluminescence quantum yield,in C1CCCCC1,0.25
CCCCCc1ccc(C#Cc2cc(C#Cc3ccc(CCCCC)cc3)c3ccc4c(C(=O)c5ccccc5)cc(C#Cc5ccc(CCCCC)cc5)c5ccc2c3c54)cc1,photoluminescence quantum yield,in ClCCl,0.43
CC1(C)c2ccccc2-c2cc3c4ccccc4n(-c4ccc(-c5nc(-c6ccccc6)nc(-c6ccccc6)n5)cc4)c3cc21,photoluminescence quantum yield,[2],0.933
CCN(CC)c1ccc2cc(-c3cn4cc(OC)ccc4n3)c(=O)oc2c1,photoluminescence quantum yield,in ClC(Cl)Cl,0.9
N#Cc1cc(-n2c3ccccc3c3ccccc32)c(C#N)cc1-n1c2ccccc2c2ccccc21,photoluminescence quantum yield,[1],0.87
same,photoluminescence quantum yield,in c1ccc2c(c1)c1ccccc1n2P1(n2c3ccccc3c3ccccc32)=NP(n2c3ccccc3c3ccccc32)(n2c3ccccc3c3ccccc32)=NP(n2c3ccccc3c3ccccc32)(n2c3ccccc3c3ccccc32)=N1,0.85
CC1=C(c2ccccc2)C2=Cc3c(-c4ccccc4)c(C)c(C)n3[B-](F)(F)[N+]2=C1C,photoluminescence quantum yield,in CC#N,0.93
CCCCCCCCCCCCC1(CCCCCCCCCCCC)c2cc(-c3ccc(C=C4C(=O)c5ccccc5C4=O)cc3)ccc2-c2ccc(-c3ccc(C=C4C(=O)c5ccccc5C4=O)cc3)cc21,photoluminescence quantum yield,in C1CCOC1,0.046
same,photoluminescence quantum yield,in CC(C)=O,0.121
same,photoluminescence quantum yield,in CCCCCC,0.008
same,photoluminescence quantum yield,in CS(C)=O,0.228
same,photoluminescence quantum yield,in Cc1ccccc1,0.012
same,photoluminescence quantum yield,in ClC(Cl)Cl,0.013
COc1ccc(-n2c(C)ccc2C)cc1,photoluminescence quantum yield,in CC#N,0.026
same,photoluminescence quantum yield,in CCCCCC,0.024
CCC1=C(C)C2=C(C)c3c(I)c(I)c(I)n3[B-](F)(F)[N+]2=C1C,photoluminescence quantum yield,in C1CCCCC1,0.1
same,photoluminescence quantum yield,in CC(C)=O,0.046
same,photoluminescence quantum yield,in CCO,0.061
same,photoluminescence quantum yield,in CCOC(C)=O,0.072
same,photoluminescence quantum yield,in CO,0.051
same,photoluminescence quantum yield,in OCC(F)(F)F,0.04
COc1cc2c(cc1OC)C1=C[C@H](c3ccc(C)cc3)C3(C(C#N)=C(C#N)N1CC2)c1cc(Br)ccc1-c1ccc(Br)cc13,photoluminescence quantum yield,in ClCCl,0.00023
CN(C)c1ccc(C#Cc2ccc3ccc4ccc(C#Cc5ccc(N(C)C)cc5)c5ccc2c3c45)cc1,photoluminescence quantum yield,in CCCCCC,0.632
same,photoluminescence quantum yield,in CO,0.256
same,photoluminescence quantum yield,in ClCCl,0.534
Oc1c(-c2ccco2)cccc1-c1nc2ccccc2s1,photoluminescence quantum yield,in CCO,0.0057
same,photoluminescence quantum yield,in ClCCl,0.0137
same,photoluminescence quantum yield,in O,0.01
Cc1ccc(C2=C3C=C(I)C(I)=[N+]3[B-](F)(F)n3c2cc(I)c3I)cc1,photoluminescence quantum yield,in C1CCCCC1,0.099
same,photoluminescence quantum yield,in CC#N,0.058
same,photoluminescence quantum yield,in CCO,0.067
same,photoluminescence quantum yield,in CCOC(C)=O,0.073
same,photoluminescence quantum yield,in CO,0.061
same,photoluminescence quantum yield,in OCC(F)(F)F,0.059
COc1cc(/C=C/c2nc3ccccc3s2)c(OC)cc1/C=C/c1nc(C)nc(/C=C/c2cc(OC)c(/C=C/c3nc4ccccc4s3)cc2OC)n1,photoluminescence quantum yield,in C1CCOC1,0.54
same,photoluminescence quantum yield,in CC#N,0.03
same,photoluminescence quantum yield,in ClC(Cl)Cl,0.5
same,photoluminescence quantum yield,in ClCCl,0.46
CCCN1c2ccccc2Sc2cc(/C=C\c3cc(=O)oc4cc(C)c(Cl)cc34)ccc21,photoluminescence quantum yield,in ClC(Cl)Cl,0.77
C1=CC2CC1C1C2[C@@]2(c3ccccc3)N=NC1(c1ccccc1)[C@@H]1C[C@H]12 (stereo partly specified),photoluminescence quantum yield,in CC#N,0.038
COc1ccccc1C1=[N+]2C(=C(c3ccccc3)c3c4c(c(-c5ccccc5OC)n3[B-]2(F)F)C2C=CC4CC2)C2=C1C1C=CC2CC1 (stereo unspecified),photoluminescence quantum yield,in ClCCl,0.87
c1ccc2c(C3=C(c4cccc5ccccc45)c4cccc5c4c(cc4nc6ccccc6nc45)O3)cccc2c1,photoluminescence quantum yield,in ClCCl,0.32
O=C1C2=C3c4ccsc4C=CN3C(=O)C2=C2c3ccsc3C=CN12,photoluminescence quantum yield,in CN(C)C=O,0.73
same,photoluminescence quantum yield,in ClC(Cl)Cl,0.8
Nc1ccc2cn[nH]c2c1,photoluminescence quantum yield,in C1CCCCC1,0.34
same,photoluminescence quantum yield,in CC#N,0.33
same,photoluminescence quantum yield,in CO,0.31
same,photoluminescence quantum yield,in O,0.39
COc1ccc(N(c2ccc(OC)cc2)c2ccc3c(c2)C2(c4cc(N(c5ccc(OC)cc5)c5ccc(OC)cc5)ccc4C=C3)c3ccccc3-c3ccccc32)cc1,photoluminescence quantum yield,in ClCCl,0.9
O=c1oc2ccc3ccccc3c2nc1-c1ccc(Cl)cc1,photoluminescence quantum yield,in c1ccccc1,0.478
CN(C)c1ccc2nc(-c3ccc(C=O)cc3)sc2c1,photoluminescence quantum yield,in C1CCCCC1,0.8
same,photoluminescence quantum yield,in CC#N,0.66
same,photoluminescence quantum yield,in CO,0.1
same,photoluminescence quantum yield,in ClC(Cl)Cl,0.85
O=P1(c2ccccc2)c2cccc3ccc4ccc1n4c23 (stereo unspecified),photoluminescence quantum yield,in ClCCl,0.36
O=C1/C(=C2\Sc3ccc(S(=O)(=O)Cl)cc3C2=O)Sc2ccc(S(=O)(=O)Cl)cc21,photoluminescence quantum yield,in C1COCCO1,0.949
same,photoluminescence quantum yield,in CS(C)=O,0.012
COc1cc(OC)cc(C2=C(c3cc(OC)c(OC)c(OC)c3)C3=Nc4c(-c5cc(OC)c(OC)c(OC)c5)c(-c5cc(OC)cc(OC)c5)c(-c5ccc(C(C)(C)C)cc5)n4[B-](F)(F)[N+]3=C2c2ccc(C(C)(C)C)cc2)c1,photoluminescence quantum yield,in Cc1ccccc1,0.01
CC(C)(C)c1ccc2c(c1)c1cc(C(C)(C)C)ccc1n2-c1ccc(-c2nc(-c3ccc(P(=O)(c4ccccc4)c4ccccc4)cc3)nc(-c3ccc(P(=O)(c4ccccc4)c4ccccc4)cc3)n2)cc1,photoluminescence quantum yield,[2],0.96
c1ccc2c(-n3c4ccccc4c4ccccc43)cccc2c1,photoluminescence quantum yield,in C1CCCCC1,0.54
same,photoluminescence quantum yield,in CCOC(C)=O,0.51
same,photoluminescence quantum yield,in CO,0.36
F[B-]1(F)n2c(c(-c3ccccc3)c(-c3ccccc3)c2-c2ccccc2)C(c2ccccc2)=C2C(c3ccccc3)=C(c3ccccc3)C(c3ccccc3)=[N+]21,photoluminescence quantum yield,in C1CCOC1,0.2
COc1cc(OC)cc(C2=[O+][B-](F)(F)OC(c3ccc4ccccc4c3)=C2)c1,photoluminescence quantum yield,in CC#N,0.01
same,photoluminescence quantum yield,in CC(C)=O,0.01
same,photoluminescence quantum yield,in CCCCCC,0.19
same,photoluminescence quantum yield,in Cc1ccccc1,0.1
same,photoluminescence quantum yield,in ClCCl,0.05
c1ccc(N(c2ccccc2)c2ccc(-c3cnc(-c4ccc(N(c5ccccc5)c5ccccc5)cc4)s3)cc2)cc1,photoluminescence quantum yield,in CO,0.41
CCOC(=O)c1c2c3c(ccc(OC)c3c3cc4c(cc13)[Si](C)(C)O[Si]4(C)C)N(C)C2=O,photoluminescence quantum yield,in CC#N,0.46
Cc1ccc(-c2ccc(/C=C/c3ccccc3)cn2)nc1,photoluminescence quantum yield,in CC#N,0.67
CCCC1=CC2=C(c3c(C)cc(C)cc3C)c3cc(CCC)c(-c4ccc5ccc6cccc7ccc4c5c67)n3[B-](F)(F)[N+]2=C1c1ccc2ccc3cccc4ccc1c2c34,photoluminescence quantum yield,in ClC(Cl)Cl,0.64
c1ccc(-c2ccc(-c3nc(-c4ccccc4)c(N(c4ccccc4)c4ccccc4)[se]3)cc2)cc1,photoluminescence quantum yield,in ClC(Cl)Cl,0.159
CN(C)/C=N\c1ccc2c3c(cccc13)C(=O)c1ccccc1-2,photoluminescence quantum yield,in C1CCOC1,0.23
same,photoluminescence quantum yield,in CCCCCC,0.31
same,photoluminescence quantum yield,in CCO,0.26
same,photoluminescence quantum yield,in CCOC(C)=O,0.28
same,photoluminescence quantum yield,in CN(C)C=O,0.2
same,photoluminescence quantum yield,in CO,0.27
same,photoluminescence quantum yield,in Cc1ccccc1,0.66
same,photoluminescence quantum yield,in ClC(Cl)(Cl)Cl,0.24
same,photoluminescence quantum yield,in ClC(Cl)Cl,0.55
same,photoluminescence quantum yield,in ClCCl,0.55
same,photoluminescence quantum yield,in c1ccccc1,0.67
